# From patent publication US12270064B2, “Peptide for complexing zinc ion, complex thereof and use therefor” (Guangzhou University, priority 2020, dated 2025)
# No end group written: not given here.
# Assay: Complexing rate / complexing ability of zinc ion of soybean peptide fractions
# Format: binding
# Conditions: HPLC separation of F2, FIG. 2
substance,measurement,value
"KYKRQRW [F21, single peptide component purified by HPLC from F2; also made by solid phase peptide synthesis]","complexing ability with zinc ion, ranking among HPLC fractions",strongest complexing ability with zinc ion
